Marks after values point to notes of the source that are not given here.
What was measured:
PDE4C = target: T1, PDE4C (Homo sapiens, UniProt Q08493); test: Recombinant PDE activity, scintillation proximity assay: PDE4C; type: biochemical; conditions: substrate [3H]cAMP, means from n independent experiments, read-out: IC50 PDE4C2
T1 construct: made in house; host or cells: SF9 insect cells (baculovirus, Bac-To-Bac, pFastbac)
Experimental: For the preparation of human recombinant PDEs of interest, the Bac-To-Bac baculoviral expression system from Invitrogen (Carlsbad, CA, United States) was used according to the instruction manual. […] The plasmids were transformed into DH10Bac bacteria, SF9 insect cells were transfected with the bacmid DNA, and the resulting baculoviruses were stored and used for further rounds of infections. For protein production, SF9 cells were infected until a cytopathic effect was visible (after about 72 h), the SF9 cells were harvested and broken up by 3 freeze/thaw cycles, and by shearing 10 times through a 0.1 mm cannula using a syringe. […] The Phosphodiesterase Scintillation Proximity Assays (TRKQ7090 for [^3H]cAMP, GE Healthcare Europe GmbH, Chalfont St Giles, United Kingdom, and TRKQ7100 for [^3H]cGMP, Perkin Elmer, Waltham, MA, United States) were performed essentially according to the instruction manual. […] Assay solutions containing recombinant baculoviral-expressed PDE (to give an activity of 5.000–20.000 cpm corresponding to 5–20% of total activity added), 50 mmol/L Tris/HCl pH 7.5, 8.3 mmol/L MgCl2, 1.7 mmol/L EGTA, and 10 µL radiolabeled substrate (0.05 µCi in H2O) were incubated for 1 h at 30°C (final volume 100 μL).

Suncus murinus = test: Determination of emesis in male Suncus murinus; type: in vivo
Experimental: All animals (50–55 g) were dosed orally by gavage immediately before transfer to whole-body plethysmography boxes. The volume of application was set to 10 mL/kg body weight. For assessment of the emetic events, animals were placed in the whole-body plethysmography boxes without any access to feed or water for 3 h. The whole-body plethysmography system used to detect emetic events consisted of five major components: 1) plethysmography boxes for mice (Buxco®, PLY 3211-F, Data Sciences International, New Brighton, MN, United States), 2) a pressure transducer with an amplifier, 3) a bias flow regulator, 4) a PC-based system to receive and process the amplified signals, and 5) a PC-based data acquisition system (NOTOCORD-hem™, Instem, Stone, United Kingdom) to process signals, as well as in-house-developed software to detect and identify changes in breathing pattern. Retching and vomiting induced characteristic changes in the breathing pattern of animals and these were recorded by whole-body plethysmography and translated for NOTOCORD recording. A number of preset definitions (computer-based criteria) characteristic for emetic events were determined. Peaks that met the set internal computer-based criteria and exceeded the threshold of more than 600 mV were labeled as emetic events by the system on a standard basis.

[1] = tested on: LPS-stimulated IL-6 release; test: LPS-stimulated IL-6 release in human whole blood; type: cell-based; conditions: high concentrations
Experimental: Heparinized whole blood was collected from the Aorta abdominalis of WI (Han) male rats (Charles River Laboratories, Sulzfeld, Germany) and from healthy male human donors, and treated with 1 µL (rat) or 2.5 µL (human) of BI 1015550 or vehicle [final DMSO concentration 0.5% (v/v)]. Final assay volumes were 200 μL (rat) and 500 μL (human). After incubation for 30 min at 37°C, 95% humidity, and 5% CO2, cultures were treated with LPS [final concentration 10 µg/mL (rat), 0.1 µg/mL (human)] or saline. After 7 h, plates were centrifuged at 3.200 × g at 4°C for 10 min and plasma was used for cytokine measurement. Meso Scale Discovery (MSD) (Rockville, MD, United States) rat and human pro-inflammatory panels were used for detection of TNF-α and IL-6 in rat plasma [diluted 1:2 (v/v)]) and human plasma [negative control undiluted, other samples diluted 1:200 (v/v)] according to the manufacturer’s instructions.

[2] = tested on: silica-induced lung fibrosis; test: Silica-induced lung inflammation and fibrosis in the mouse; type: in vivo; conditions: mice
Experimental: BI 1015550 was given at doses of 0.25, 0.75, and 2.5 mg/kg b.i.d. in Natrosol 0.5% (10 mL/kg) starting from day 10 after silica instillation until day 30 (therapeutic regimen). 8-week-old BL6 mice (mixed sex, Janvier Labs, Le Genest-Saint-Isle, France) were used. Details of the experimental methods are described elsewhere ([Lo Re et al., 2010]). Briefly, mice received silica particles at 2.5 mg/mouse by intranasal instillation. Control mice received the respective saline solution by intranasal instillation. Mice were killed 30 days after silica administration and macroscopic changes were recorded at post-mortem analysis. Lung weight was measured, BALF for total cell and differential cell counts as well as myeloperoxidase (MPO) activity and keratinocyte-derived cytokine (KC, the counterpart of human GRO protein) determination was generated, and lung histology (staining with HE and chromotrope-aniline blue with semi-quantitative analysis for the estimation of inflammation, granuloma, and fibrosis scores was done.

[3] = 0.25 mg/kg b.i.d. oral day 10–30
[4] = 0.75 mg/kg b.i.d. oral day 10–30
[5] = 2.5 mg/kg b.i.d. oral day 10–30

T1 sequence (Q08493 107-712): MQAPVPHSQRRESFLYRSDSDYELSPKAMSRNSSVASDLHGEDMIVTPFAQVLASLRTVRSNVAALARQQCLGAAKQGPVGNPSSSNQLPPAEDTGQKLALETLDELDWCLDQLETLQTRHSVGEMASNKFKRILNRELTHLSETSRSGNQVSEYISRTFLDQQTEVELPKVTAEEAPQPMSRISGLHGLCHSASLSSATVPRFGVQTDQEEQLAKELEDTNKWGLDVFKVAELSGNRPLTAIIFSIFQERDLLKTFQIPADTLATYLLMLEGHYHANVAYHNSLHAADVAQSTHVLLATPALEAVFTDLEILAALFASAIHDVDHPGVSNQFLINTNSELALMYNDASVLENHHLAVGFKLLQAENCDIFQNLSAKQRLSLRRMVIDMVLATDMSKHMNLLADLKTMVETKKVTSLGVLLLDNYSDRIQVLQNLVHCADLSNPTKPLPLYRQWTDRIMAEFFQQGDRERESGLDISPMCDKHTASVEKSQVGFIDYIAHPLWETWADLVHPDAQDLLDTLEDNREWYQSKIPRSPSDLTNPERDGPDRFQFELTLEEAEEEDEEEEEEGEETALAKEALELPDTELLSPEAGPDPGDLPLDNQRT

With `[O-][S+]1CCc2nc(N3CCC(c4ncc(Cl)cn4)CC3)nc(NC3(CO)CCC3)c21` (stereo not shown) [BI 1015550] as the compound, how does the IC50 (PDE4C) read?
Its IC50 is 8.7 µM.

What about the Animals showing emesis (Suncus murinus; 0.5 mg/kg oral, 3 h observation, data not shown) of the same compound?
Its Animals showing emesis is 3 of 24.

And the “Mean emetic events per animal” value (Suncus murinus; 0.5 mg/kg oral, data not shown)?
The value was 0.1.

What about the Animals showing emesis (Suncus murinus; 10 × ED50 oral (BI 1015550 6 mg/kg, roflumilast 10 mg/kg)) of the same compound?
The Animals showing emesis was 5 out of 24.

And the “% of vomiting animals, emesis at 10 × ED50” value (Suncus murinus; oral (BI 1015550 6 mg/kg, roflumilast 10 mg/kg), 24 animals)?
The value was 21%.

And the IL-6 increase [1]?
The IL-6 increase was “did not result in an IL-6 increase”.

And the “Maximum inhibition of IL-6 release” value [1]?
The value was 30–40%.

And the “Fibrosis score, % change related to control animals” value (“Fibrosis score, % change related” below) [2, 3]?
The value was 5%.

What about the “Granuloma score, % change related to control animals” value (from here on “Granuloma score, % change related”) [2, 3] of the same compound?
The value was “–16%”.

And the “Inflammation score, % change related to control animals” value (“Inflammation score, % change related” below) [2, 3]?
The value was “–4%”.

And the “KC in BALF, % change related to control animals” value (from here on “KC in BALF, % change related”) [2, 3]?
The value was 4%.

And the “Lung weight, % change related to control animals” value (shortened to “Lung weight, % change related”) [2, 3]?
Its value is “–57%”.

And the “Lymphocytes in BALF, % change related to control animals” value (“Lymphocytes in BALF, % change related” for short) [2, 3]?
The value was “–18%”.

What about the “MPO in BALF, % change related to control animals” value (“MPO in BALF, % change related” below) [2, 3] of the same compound?
Its value is “–2%”.

What about the “Macrophages in BALF, % change related to control animals” value (shortened to “Macrophages in BALF, % change related”) [2, 3] of the same compound?
The value was “–29%”.

And the “Neutrophils in BALF, % change related to control animals” value (“Neutrophils in BALF, % change related” for short) [2, 3]?
Its value is “–35%”.

What about the “Total cells in BALF, % change related to control animals” value (“Total cells in BALF, % change related” below) [2, 3] of the same compound?
The value was “–27%”.

What about the “Fibrosis score, % change related” value [2, 4] of the same compound?
Its value is “–10%”.

What about the “Granuloma score, % change related” value [2, 4] of the same compound?
Its value is “–11%”.

What about the “Inflammation score, % change related” value [2, 4] of the same compound?
The value was 4%.

And the “KC in BALF, % change related” value [2, 4]?
Its value is “–39%”.

And the “Lung weight, % change related” value [2, 4]?
Its value is “–46%”.

What about the “Lymphocytes in BALF, % change related” value [2, 4] of the same compound?
Its value is 49%.

What about the “MPO in BALF, % change related” value [2, 4] of the same compound?
The value was “–22%”.

And the “Macrophages in BALF, % change related” value [2, 4]?
Its value is “–11%”.

What about the “Neutrophils in BALF, % change related” value [2, 4] of the same compound?
The value was 8%.

What about the “Total cells in BALF, % change related” value [2, 4] of the same compound?
Its value is “–13%”.

And the “Fibrosis score, % change related” value [2, 5]?
Its value is “–15%”.

What about the “Granuloma score, % change related” value [2, 5] of the same compound?
Its value is “–32%”.

What about the “Inflammation score, % change related” value [2, 5] of the same compound?
Its value is “–19%”.

What about the “KC in BALF, % change related” value [2, 5] of the same compound?
Its value is “–27%”.

And the “Lung weight, % change related” value [2, 5]?
Its value is “–46%”.

What about the “Lymphocytes in BALF, % change related” value [2, 5] of the same compound?
Its value is “–12%”.

What about the “MPO in BALF, % change related” value [2, 5] of the same compound?
Its value is “–34%”.

And the “Macrophages in BALF, % change related” value [2, 5]?
Its value is “–38* %”.

What about the “Neutrophils in BALF, % change related” value [2, 5] of the same compound?
The value was “–46* %”.

What about the “Total cells in BALF, % change related” value [2, 5] of the same compound?
The value was “–28%”.

Source: publication PMC9065678, “BI 1015550 is a PDE4B Inhibitor and a Clinical Drug Candidate for the Oral Treatment of Idiopathic Pulmonary Fibrosis” (Frontiers in Pharmacology, 2022)
